Measured values as given in article PMC8118430, “Utility of novel 2-furanones in synthesis of other heterocyclic compounds having anti-inflammatory activity with dual COX2/LOX inhibition” (Journal of Enzyme Inhibition and Medicinal Chemistry, 2021).

Experiments:
TNF-α = target: T1, TNF-α (Homo sapiens, UniProt P01375); assay: TNFR2: TNF-α [biotinylated] inhibitor screening assay; assay type: binding; details: for IC50: mean ± SD of three experiments
T1 construct: purchased BPS Bioscience 79756
Method: The assay was performed in triplicates using TNFR2: TNF-α [biotinylated] […] First, TNFR2 is coated on a 96-well plate. Next, biotinylated TNF-α is incubated with TNFR2 on the plate. Finally, the plate was treated with streptavidin-HRP followed by addition of an HRP substrate to produce chemiluminescence, which can be measured using a chemiluminescence reader.

COX-1 = target: T2, COX-1 (Ovis aries, UniProt P05979); assay: Cyclooxygenase COX-1 inhibition assay (Cayman COX inhibitor screening kit, EIA)
T2 sequence (P05979 25-600): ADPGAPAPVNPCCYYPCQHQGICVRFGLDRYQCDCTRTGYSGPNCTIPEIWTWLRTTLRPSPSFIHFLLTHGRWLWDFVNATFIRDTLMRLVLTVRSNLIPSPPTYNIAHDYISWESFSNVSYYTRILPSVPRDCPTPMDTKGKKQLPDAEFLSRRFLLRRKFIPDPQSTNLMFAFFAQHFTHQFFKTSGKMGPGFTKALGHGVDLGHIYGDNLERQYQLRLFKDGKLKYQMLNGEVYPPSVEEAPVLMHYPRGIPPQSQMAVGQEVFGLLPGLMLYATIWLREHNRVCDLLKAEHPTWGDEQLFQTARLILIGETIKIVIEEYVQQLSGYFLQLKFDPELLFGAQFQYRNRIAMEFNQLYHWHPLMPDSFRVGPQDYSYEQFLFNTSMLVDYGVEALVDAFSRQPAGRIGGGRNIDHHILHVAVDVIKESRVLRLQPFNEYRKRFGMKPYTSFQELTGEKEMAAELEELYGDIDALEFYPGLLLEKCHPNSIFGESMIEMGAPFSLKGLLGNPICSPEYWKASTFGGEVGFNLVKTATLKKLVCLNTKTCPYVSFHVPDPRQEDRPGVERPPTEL
Method: (§1) Tested compounds were dissolved in DMSO. […] The COX inhibitor screening assay depends on direct measurement of the amount of PG2α produced in the COX reaction. […] Enzyme catalysis was terminated by addition of 50 µl 1 M HCl and 100 µl of the saturated stannous chloride solution. The PGs are quantified by enzyme immunoassay (EIA) at 410 nm.
(§2) Thus, the newly synthesised compounds were tested for their anti-inflammatory activity against isozymes COX-1 and COX-2, which were determined by the COX-catalysed transformation of AA into PGH2 that was reduced to PGF2α and detected by the EIA[53], as shown in Table 1.

COX-2 = target: T3, COX-2 (Homo sapiens, UniProt P35354); assay: Cyclooxygenase COX-2 inhibition assay (Cayman COX inhibitor screening kit, EIA); details: for Selectivity indexes (SI): SI = IC50 COX-1/COX-2 ratios
T3 sequence (P35354 18-604): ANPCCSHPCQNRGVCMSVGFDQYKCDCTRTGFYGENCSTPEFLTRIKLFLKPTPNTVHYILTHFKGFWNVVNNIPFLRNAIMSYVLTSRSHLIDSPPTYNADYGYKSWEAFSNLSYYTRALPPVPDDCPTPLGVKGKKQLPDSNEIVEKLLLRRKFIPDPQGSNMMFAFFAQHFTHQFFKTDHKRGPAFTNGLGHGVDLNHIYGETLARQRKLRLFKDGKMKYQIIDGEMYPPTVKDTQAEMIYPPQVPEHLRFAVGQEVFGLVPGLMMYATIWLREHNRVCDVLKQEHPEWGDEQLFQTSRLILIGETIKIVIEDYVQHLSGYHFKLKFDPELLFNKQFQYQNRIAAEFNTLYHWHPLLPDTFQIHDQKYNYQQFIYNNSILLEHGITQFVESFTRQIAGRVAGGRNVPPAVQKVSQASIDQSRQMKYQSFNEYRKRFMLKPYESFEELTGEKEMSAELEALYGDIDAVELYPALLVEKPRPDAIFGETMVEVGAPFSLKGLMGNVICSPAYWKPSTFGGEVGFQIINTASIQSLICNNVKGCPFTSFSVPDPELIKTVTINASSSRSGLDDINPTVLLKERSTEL
Method: as §1, §2

15-LOX = target: T4, 15-LOX (Glycine max, UniProt P08170); assay: Lipoxygenase (15-LOX) inhibition assay (Cayman LOX inhibitor screening kit); assay type: biochemical, soybean; details: mean ± SD of three experiments
T4 construct: purchased Cayman Chemical 760700
T4 sequence (P08170 1-839): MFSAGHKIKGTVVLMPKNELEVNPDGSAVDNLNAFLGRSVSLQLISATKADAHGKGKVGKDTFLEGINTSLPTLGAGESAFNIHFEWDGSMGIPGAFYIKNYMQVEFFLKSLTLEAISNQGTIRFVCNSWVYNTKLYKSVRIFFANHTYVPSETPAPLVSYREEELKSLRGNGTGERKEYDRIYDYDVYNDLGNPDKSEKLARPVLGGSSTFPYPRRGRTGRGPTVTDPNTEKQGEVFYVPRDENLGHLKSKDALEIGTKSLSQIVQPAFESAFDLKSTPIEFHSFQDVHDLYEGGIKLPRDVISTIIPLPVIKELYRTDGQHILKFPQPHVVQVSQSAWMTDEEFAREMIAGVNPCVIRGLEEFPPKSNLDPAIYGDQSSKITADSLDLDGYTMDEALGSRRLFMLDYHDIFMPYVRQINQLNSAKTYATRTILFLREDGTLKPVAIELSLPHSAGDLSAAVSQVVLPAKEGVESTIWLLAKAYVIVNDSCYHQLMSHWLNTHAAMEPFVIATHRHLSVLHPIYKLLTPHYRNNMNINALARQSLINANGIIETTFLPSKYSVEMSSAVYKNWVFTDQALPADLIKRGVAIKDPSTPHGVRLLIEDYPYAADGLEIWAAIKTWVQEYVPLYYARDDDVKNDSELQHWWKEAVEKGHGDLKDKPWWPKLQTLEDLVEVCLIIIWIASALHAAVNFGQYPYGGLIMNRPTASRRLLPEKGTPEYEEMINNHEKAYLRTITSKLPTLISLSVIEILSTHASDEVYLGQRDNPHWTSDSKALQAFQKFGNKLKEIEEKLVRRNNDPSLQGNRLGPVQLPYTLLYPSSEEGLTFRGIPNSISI
Method: Briefly, in a 96-well plate, 10 µl of each test compound (dissolved in DMSO) or vehicle were pre-incubated with 90 µl of 15-LOX enzyme. The reaction was started by addition of 10 µl of substrate (AA) and the plate was shaken for at least 5 min. Then, 100 µl of chromogen supplied with the kit was added to each well to stop the enzymatic reaction and develop the colour. The absorbance was measured at 490 nm using microplate reader.
Therefore, the soybean LOX is most like the mammalian 15-LOX[59].

T1 sequence (P01375 77-233 limits assumed): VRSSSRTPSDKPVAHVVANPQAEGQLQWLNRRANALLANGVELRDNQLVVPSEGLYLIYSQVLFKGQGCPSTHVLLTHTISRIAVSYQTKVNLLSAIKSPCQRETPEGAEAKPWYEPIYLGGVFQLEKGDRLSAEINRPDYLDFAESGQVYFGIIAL

| Structure (SMILES) | IC50 (TNF-α) [nM] | IC50 (COX-1) [µM] | IC50 (COX-2) [nM] | Selectivity indexes (SI) (COX-2) | melting point [°C] | IC50 (15-LOX) [nM] | COX-2 inhibition, in words (SAR discussion) (COX-2; qualitative statement) | TNF-α inhibition, in words (discussion) (TNF-α; qualitative statement) |
| --- | --- | --- | --- | --- | --- | --- | --- | --- |
| O=C1NN(C(=O)c2ccccc2)C(c2ccc(Cl)c(Cl)c2)=CC1=Cc1cccc([N+](=O)[O-])c1 [Compound 8b, 2-Benzoyl-5-(3-nitrobenzylidene)-3-(3,4-dichlorophenyl)-1H-pyridazin-6-one] | 3.47 ± 0.06 | 12.67 ± 0.12 | 40 | 316.75 | 150 to 152 | 2470 ± 60 | – | – |
| O=C1NC(c2ccc(Cl)c(Cl)c2)=CC1=Cc1cccc([N+](=O)[O-])c1 [Compound 3b, 5-(3,4-Dichlorophenyl)-3-(3-nitrobenzylidene)-1H-pyrrol-2-one] | 8.27 ± 0.12 | 6.87 ± 0.12 | 390 ± 10 | 17.62 | > 300 | 1870 ± 150 | – | – |
| O=C1NN(C(=O)c2ccccc2)C(c2ccc(Cl)c(Cl)c2)=CC1=Cc1ccccc1[N+](=O)[O-] [Compound 8a, 2-Benzoyl-5-(2-nitrobenzylidene)-3-(3,4-dichlorophenyl)-1H-pyridazin-6-one] | 3.83 ± 1.44 | 10.8 ± 0.15 | 70 | 153.86 | 222 to 224 | 2330 ± 510 | – | – |
| CN(C)c1ccc(C=C2C=C(c3ccc(Cl)c(Cl)c3)N(c3ccccc3)NC2=O)cc1 [Compound 5c, 6-(3,4-Dichlorophenyl)-4-(4-dimethylaminobenzylidene)-1-phenyl-1,4-dihydropyridazin-3(2H)-one] | 3.57 ± 0.12 | 11.7 ± 0.12 | 90 | 130.33 | > 300 | 2970 ± 120 | – | – |
| O=C(CC(=Cc1ccccc1[N+](=O)[O-])c1n[nH]c(=S)o1)c1ccc(Cl)c(Cl)c1 [Compound 9a, 1-(3,4-Dichlorophenyl)-4-(2-nitrophenyl)-3-(2-thioxo-4,5-dihydro-1,3,4-oxadiazol-5-yl)but-3-en-1-one] | 5.57 ± 0.06 | 9.43 ± 0.12 | 280 ± 10 | 33.68 | 214 to 216 | 2070 ± 150 | – | – |
| O=C(NCc1ccccc1)C(=Cc1ccccc1[N+](=O)[O-])CC(=O)c1ccc(Cl)c(Cl)c1 [Compound 4a, N-benzyl-2-(2-nitrobenzylidene)-4-(3,4-dichlorophenyl)-4-oxobutanamide] | 4.77 ± 0.12 | 11.1 ± 0.15 | 50 | 221.40 | 250 to 252 | 5470 ± 120 | – | – |
| CN(C)c1ccc(C=C(CC(=O)c2ccc(Cl)c(Cl)c2)c2n[nH]c(=S)o2)cc1 [Compound 9c, 1-(3,4-Dichlorophenyl)-4-(4-dimethylaminophenyl)-3-(2-thioxo-4,5-dihydro-1,3,4-oxadiazol-5-yl)but-3-en-1-one] | 6.27 ± 0.15 | 8.93 ± 0.06 | 220 ± 10 | 40.59 | 162 to 164 | 2000 ± 170 | – | – |
| O=C(NCc1ccccc1)C(=Cc1cccc([N+](=O)[O-])c1)CC(=O)c1ccc(Cl)c(Cl)c1 [Compound 4b, N-benzyl-2-(3-nitrobenzylidene)-4-(3,4-dichlorophenyl)-4-oxobutanamide] | 3.53 ± 0.12 | 13.3 ± 0.15 | 60 | 222.17 | 124 to 126 | 5870 ± 60 | – | – |
| NNC(=O)C(=Cc1ccccc1[N+](=O)[O-])CC(=O)c1ccc(Cl)c(Cl)c1 [Compound 6a, 4-(3,4-Dichlorophenyl)-2-(2-nitrobenzylidene)-4-oxo-butanehydrazide] | 5.87 ± 0.12 | 9.67 ± 0.06 | 90 | 107.44 | 164 to 166 | 2830 ± 60 | high activity | – |
| O=C1OC(c2ccc(Cl)c(Cl)c2)=CC1=Cc1cccc([N+](=O)[O-])c1 [Compound 2b, 5-(3,4-Dichlorophenyl)3-(3-nitrobenzylidene)-furan-2-one] | 7.77 ± 1.68 | 6.97 ± 0.12 | 280 ± 10 | 24.89 | 230 to 232 | 4400 ± 100 | – | – |
| CN(C)c1ccc(C=C2C=C(c3ccc(Cl)c(Cl)c3)N(C(=O)c3ccccc3)NC2=O)cc1 [Compound 8c, 2-Benzoyl-5-(4-dimethylaminobenzylidene)-3-(3,4-dichlorophenyl)-1H-pyridazin-6-one] | 2.9 ± 0.1 | 13.07 ± 0.12 | 40 | 326.75 | 229 to 231 | 3170 ± 60 | – | lowest IC50 value |
| O=C1OC(c2ccc(Cl)c(Cl)c2)=CC1=Cc1ccccc1[N+](=O)[O-] [Compound 2a, 5-(3,4-Dichlorophenyl)3-(2-nitrobenzylidene)-furan-2-one] | 7.47 ± 0.12 | 4.53 ± 0.12 | 350 ± 10 | 12.94 | 259 to 261 | 5100 ± 100 | – | – |
| CN(C)c1ccc(C=C2C=C(c3ccc(Cl)c(Cl)c3)NC2=O)cc1 [Compound 3c, 5-(3,4-Dichlorophenyl)-3-(4-dimethylaminobenzylidene)-1H-pyrrol-2-one] | 6.77 ± 0.12 | 5.93 ± 0.15 | 340 ± 10 | 17.44 | > 300 | 2210 ± 980 | – | – |
| O=C1NC(c2ccc(Cl)c(Cl)c2)=CC1=Cc1ccccc1[N+](=O)[O-] [Compound 3a, 5-(3,4-Dichlorophenyl)-3-(2-nitrobenzylidene)-1H-pyrrol-2-one] | 5.93 ± 0.15 | 8.37 ± 0.12 | 190 ± 10 | 44.05 | > 300 | 2330 ± 120 | – | – |
